Measurements as given in patent US20130210881A1, “ANTIMICROBIAL COMPOSITION” (Agency for Science ,Technology and Research, priority 2010, published 2013).

Columns and labels:
Assay type in all cases: cell-based
[1] = system: Escherichia coli (ATCC 25922, gram-negative); assay: Antimicrobial analysis, MIC, E. coli; settings: ATCC25922, 37° C., 24 hours, concentration necessary to inhibit complete cell growth
Description: (§1) All bacteria and yeast originated from a −80° C. frozen stock. Bacteria were grown overnight at 37° C. in Tryptic Soy broth (TSB) and yeast was grown overnight at 22° C. in Yeast Mold (YM) broth. Sub-samples of these cultures were grown for three hours further and diluted to an OD600 of 0.1. The bacteria solutions (about 2˜5×10^8 cells/mL) were then added to the 96-well plate and were incubated at 37° C. for 24 hours. All experiments were run in triplicate and the reported minimum inhibitory concentration (MIC) is the concentration necessary to inhibit complete cell growth.

[2] = system: Bacillus subtilis (ATCC 23857, gram-positive); assay: Antimicrobial analysis, MIC, B. subtilis; settings: ATCC23857, 37° C., 24 hours, concentration necessary to inhibit complete cell growth
Description: as §1

[3] = system: Candida albicans (ATCC 10231, yeast); assay: Antimicrobial analysis, MIC, C. albicans; settings: ATCC10231, concentration necessary to inhibit complete cell growth
Description: as §1

| SMILES | MIC [1] [mg/L] | MIC [2] [mg/L] | MIC [3] [mg/L] |
| --- | --- | --- | --- |
| c1ccc(C[n+]2ccn(Cc3ccc(Cn4cc[n+](Cc5ccccc5)c4)cc3)c2)cc1 [Sample 3a] | > 250 | > 250 | > 250 |
| c1ccc(C[n+]2ccn(Cc3ccccc3Cn3cc[n+](Cc4ccccc4)c3)c2)cc1 [Sample 3b] | > 250 | > 250 | > 250 |
| c1ccc(C[n+]2ccn(Cc3ccc(Cn4cc[n+](Cc5ccc(Cn6cc[n+](Cc7ccccc7)c6)cc5)c4)cc3)c2)cc1 [Sample 3c] | > 250 | > 250 | > 250 |
| C(=C/CCn1cc[n+](Cc2ccccc2)c1)/CCn1cc[n+](CC/C=C\CCn2cc[n+](Cc3ccccc3)c2)c1 [Sample 3d] | > 250 | > 250 | > 250 |
| C(=C/CCn1cc[n+](Cc2ccc(Cn3cc[n+](CC/C=C\CCn4cc[n+](Cc5ccccc5)c4)c3)cc2)c1)/CCn1cc[n+](Cc2ccccc2)c1 [Sample 3f] | > 250 | > 250 | > 250 |
